According to patent publication US20110190321A1, “[…] FOR EGFR INHIBITOR TREATMENT” (priority 2007, published 2011):

Experiments:
[1] = tested on: patients with advanced NSCLC following failure of at least one prior chemotherapy regimen; assay: Open-label predictive marker identification Phase II study of Tarceva monotherapy 150 mg/day; RECIST response and survival; type: in vivo, human; settings: 102 patients with evaluable microarray data
Method: The selection of this dose was based on pharmacokinetic parameters, as well as the safety and tolerability profile of this dose observed in Phase I, II and III trials in heavily pre-treated patients with advanced cancer. Drug levels seen in the plasma of patients with cancer receiving the 150 mg/day dose were consistently above the average plasma concentration of 500 ng/ml targeted for clinical efficacy.
This was an open-label, predictive marker identification Phase II study. The study was conducted in approximately 26 sites in about 12 countries. 264 patients with advanced NSCLC following failure of at least one prior chemotherapy regimen were enrolled over a 12 month period. […] Dose reductions were permitted based on tolerability to drug therapy. Clinical and laboratory parameters were assessed to evaluate disease control and toxicity. Treatment continued until disease progression, unacceptable toxicity or death. The study design is depicted in FIG. 1.
The RECIST (Uni-dimensional Tumour Measurement) criteria were used to evaluate response. These criteria can be found under the following link: […]
A regular status check every 3 months was performed either by a patient's visit to the clinic or by telephone. All deaths were recorded. […]

[2] = patients with cancer, 150 mg/day dose; 500 ng/ml is the average concentration targeted for clinical efficacy; cited from earlier work
[3] = tested on: NSCLC patients for whom standard therapy for advanced disease has failed; settings: single agent versus placebo, BR.21; cited from earlier work

C#Cc1cccc(Nc2ncnc3cc(OCCOC)c(OCCOC)cc23)c1 [Erlotinib, erlotinib]
Best Response PD [1]: (48.0%) | Best Response PR [1]: (5.9%) | Drug levels in plasma [2]: > 500 ng/mL | survival of NSCLC patients [3]: significantly prolongs and improves the survival
